{"source": "the supplement of paper PMC10307832", "test_in_all_cases": "relative viability (nuclei count vs DMSO), 5 days (fraction); higher = more cells survive", "key": {"NCI-H3122": {"tested_on": "NCI-H3122", "summary_of_the_method": "(§1)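 Lung cancer cell lines in 1536-well plates got either a single drug or a fixed anchor-drug dose together with five library-drug doses (not always all listed) in √10 steps, by pin tool, on the day after seeding. Nuclei were counted after 5 days, and relative viability is the treated-to-vehicle ratio of nuclei counts. Values are medians of duplicate plates.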"}, "HCC-44": {"tested_on": "HCC-44", "summary_of_the_method": "as §1"}, "NCI-H2347": {"tested_on": "NCI-H2347", "summary_of_the_method": "as §1"}, "PC-14": {"tested_on": "PC-14", "summary_of_the_method": "as §1"}, "NCI-H2085": {"tested_on": "NCI-H2085", "summary_of_the_method": "as §1"}, "NCI-H1734": {"tested_on": "NCI-H1734", "summary_of_the_method": "as §1"}, "NCI-H1993": {"tested_on": "NCI-H1993", "summary_of_the_method": "as §1"}, "201T": {"tested_on": "201T", "summary_of_the_method": "as §1"}, "EKVX": {"tested_on": "EKVX", "summary_of_the_method": "as §1"}, "NCI-H2170": {"tested_on": "NCI-H2170", "summary_of_the_method": "as §1"}, "NCI-H2405": {"tested_on": "NCI-H2405", "summary_of_the_method": "as §1"}, "NCI-H1793": {"tested_on": "NCI-H1793", "summary_of_the_method": "as §1"}, "RERF-LC-KJ": {"tested_on": "RERF-LC-KJ", "summary_of_the_method": "as §1"}, "LOU-NH91": {"tested_on": "LOU-NH91", "summary_of_the_method": "as §1"}, "EPLC-272H": {"tested_on": "EPLC-272H", "summary_of_the_method": "as §1"}, "NCI-H441": {"tested_on": "NCI-H441", "summary_of_the_method": "as §1"}, "NCI-H647": {"tested_on": "NCI-H647", "summary_of_the_method": "as §1"}, "SW 900": {"tested_on": "SW 900", "summary_of_the_method": "as §1"}, "ABC-1": {"tested_on": "ABC-1", "summary_of_the_method": "as §1"}}}
{"smiles": "COc1cc(N2CCC(C(N)=O)CC2)ccc1Nc1nc(N)c(Cl)c(Nc2ccccc2S(=O)(=O)C(C)C)n1", "note": "[HG-5-88-01] + NC(=O)Nc1cc(-c2cccc(F)c2)sc1C(=O)N[C@H]1CCCNC1 [AZD7762] (partner 0.2 µM)", "values": [{"measurement": "relative viability", "setting": "NCI-H3122; first compound 0.04 µM", "value": 0.744}, {"measurement": "relative viability", "setting": "NCI-H3122; first compound 0.1265 µM", "value": 0.376}, {"measurement": "relative viability", "setting": "NCI-H3122; first compound 0.4 µM", "value": 0.315}, {"measurement": "relative viability", "setting": "NCI-H3122; first compound 1.265 µM", "value": 0.24}, {"measurement": "relative viability", "setting": "NCI-H3122; first compound 4 µM", "value": 0.114}, {"measurement": "relative viability", "setting": "HCC-44; first compound 0.04 µM", "value": 0.959}, {"measurement": "relative viability", "setting": "HCC-44; first compound 0.1265 µM", "value": 0.999}, {"measurement": "relative viability", "setting": "HCC-44; first compound 0.4 µM", "value": 0.995}, {"measurement": "relative viability", "setting": "HCC-44; first compound 1.265 µM", "value": 1.03}, {"measurement": "relative viability", "setting": "HCC-44; first compound 4 µM", "value": 0.957}, {"measurement": "relative viability", "setting": "NCI-H2347; first compound 0.04 µM", "value": 0.881}, {"measurement": "relative viability", "setting": "NCI-H2347; first compound 0.1265 µM", "value": 0.9}, {"measurement": "relative viability", "setting": "NCI-H2347; first compound 0.4 µM", "value": 0.82}, {"measurement": "relative viability", "setting": "NCI-H2347; first compound 1.265 µM", "value": 0.718}, {"measurement": "relative viability", "setting": "NCI-H2347; first compound 4 µM", "value": 0.804}, {"measurement": "relative viability", "setting": "PC-14; first compound 0.04 µM", "value": 0.345}, {"measurement": "relative viability", "setting": "PC-14; first compound 0.1265 µM", "value": 0.315}, {"measurement": "relative viability", "setting": "PC-14; first compound 0.4 µM", "value": 0.343}, {"measurement": "relative viability", "setting": "PC-14; first compound 1.265 µM", "value": 0.38}, {"measurement": "relative viability", "setting": "PC-14; first compound 4 µM", "value": 0.0818}, {"measurement": "relative viability", "setting": "NCI-H2085; first compound 0.04 µM", "value": 1.08}, {"measurement": "relative viability", "setting": "NCI-H2085; first compound 0.1265 µM", "value": 0.969}, {"measurement": "relative viability", "setting": "NCI-H2085; first compound 0.4 µM", "value": 0.922}, {"measurement": "relative viability", "setting": "NCI-H2085; first compound 1.265 µM", "value": 0.964}, {"measurement": "relative viability", "setting": "NCI-H2085; first compound 4 µM", "value": 0.667}, {"measurement": "relative viability", "setting": "NCI-H1734; first compound 0.04 µM", "value": 0.515}, {"measurement": "relative viability", "setting": "NCI-H1734; first compound 0.1265 µM", "value": 0.514}, {"measurement": "relative viability", "setting": "NCI-H1734; first compound 0.4 µM", "value": 0.52}, {"measurement": "relative viability", "setting": "NCI-H1734; first compound 1.265 µM", "value": 0.511}, {"measurement": "relative viability", "setting": "NCI-H1734; first compound 4 µM", "value": 0.724}, {"measurement": "relative viability", "setting": "NCI-H1993; first compound 0.04 µM", "value": 0.845}, {"measurement": "relative viability", "setting": "NCI-H1993; first compound 0.1265 µM", "value": 0.875}, {"measurement": "relative viability", "setting": "NCI-H1993; first compound 0.4 µM", "value": 0.77}, {"measurement": "relative viability", "setting": "NCI-H1993; first compound 4 µM", "value": 0.558}, {"measurement": "relative viability", "setting": "201T; first compound 0.04 µM", "value": 0.54}, {"measurement": "relative viability", "setting": "201T; first compound 0.1265 µM", "value": 0.62}, {"measurement": "relative viability", "setting": "201T; first compound 1.265 µM", "value": 0.631}, {"measurement": "relative viability", "setting": "201T; first compound 4 µM", "value": 0.374}, {"measurement": "relative viability", "setting": "EKVX; first compound 0.04 µM", "value": 0.673}, {"measurement": "relative viability", "setting": "EKVX; first compound 0.1265 µM", "value": 0.622}, {"measurement": "relative viability", "setting": "EKVX; first compound 0.4 µM", "value": 0.695}, {"measurement": "relative viability", "setting": "EKVX; first compound 4 µM", "value": 0.527}, {"measurement": "relative viability", "setting": "NCI-H2170; first compound 0.04 µM", "value": 0.819}, {"measurement": "relative viability", "setting": "NCI-H2170; first compound 0.1265 µM", "value": 0.878}, {"measurement": "relative viability", "setting": "NCI-H2170; first compound 0.4 µM", "value": 0.907}, {"measurement": "relative viability", "setting": "NCI-H2170; first compound 1.265 µM", "value": 0.402}, {"measurement": "relative viability", "setting": "NCI-H2170; first compound 4 µM", "value": 0.934}, {"measurement": "relative viability", "setting": "NCI-H2405; first compound 0.04 µM", "value": 0.769}, {"measurement": "relative viability", "setting": "NCI-H2405; first compound 0.1265 µM", "value": 0.659}, {"measurement": "relative viability", "setting": "NCI-H2405; first compound 0.4 µM", "value": 0.569}, {"measurement": "relative viability", "setting": "NCI-H2405; first compound 1.265 µM", "value": 0.638}, {"measurement": "relative viability", "setting": "NCI-H2405; first compound 4 µM", "value": 0.504}, {"measurement": "relative viability", "setting": "NCI-H1793; first compound 0.04 µM", "value": 0.557}, {"measurement": "relative viability", "setting": "NCI-H1793; first compound 0.1265 µM", "value": 0.409}, {"measurement": "relative viability", "setting": "NCI-H1793; first compound 0.4 µM", "value": 0.379}, {"measurement": "relative viability", "setting": "NCI-H1793; first compound 1.265 µM", "value": 0.452}, {"measurement": "relative viability", "setting": "NCI-H1793; first compound 4 µM", "value": 0.186}, {"measurement": "relative viability", "setting": "RERF-LC-KJ; first compound 0.04 µM", "value": 0.995}, {"measurement": "relative viability", "setting": "RERF-LC-KJ; first compound 0.1265 µM", "value": 1.07}, {"measurement": "relative viability", "setting": "RERF-LC-KJ; first compound 0.4 µM", "value": 0.979}, {"measurement": "relative viability", "setting": "RERF-LC-KJ; first compound 1.265 µM", "value": 0.747}, {"measurement": "relative viability", "setting": "RERF-LC-KJ; first compound 4 µM", "value": 0.563}, {"measurement": "relative viability", "setting": "LOU-NH91; first compound 0.04 µM", "value": 0.809}, {"measurement": "relative viability", "setting": "LOU-NH91; first compound 0.1265 µM", "value": 0.677}, {"measurement": "relative viability", "setting": "LOU-NH91; first compound 0.4 µM", "value": 0.649}, {"measurement": "relative viability", "setting": "LOU-NH91; first compound 1.265 µM", "value": 0.551}, {"measurement": "relative viability", "setting": "LOU-NH91; first compound 4 µM", "value": 0.514}, {"measurement": "relative viability", "setting": "EPLC-272H; first compound 0.04 µM", "value": 0.215}, {"measurement": "relative viability", "setting": "EPLC-272H; first compound 0.1265 µM", "value": 0.222}, {"measurement": "relative viability", "setting": "EPLC-272H; first compound 0.4 µM", "value": 0.203}, {"measurement": "relative viability", "setting": "EPLC-272H; first compound 1.265 µM", "value": 0.234}, {"measurement": "relative viability", "setting": "EPLC-272H; first compound 4 µM", "value": 0.0657}, {"measurement": "relative viability", "setting": "NCI-H441; first compound 0.04 µM", "value": 0.964}, {"measurement": "relative viability", "setting": "NCI-H441; first compound 0.1265 µM", "value": 0.931}, {"measurement": "relative viability", "setting": "NCI-H441; first compound 0.4 µM", "value": 1.19}, {"measurement": "relative viability", "setting": "NCI-H441; first compound 1.265 µM", "value": 1.08}, {"measurement": "relative viability", "setting": "NCI-H441; first compound 4 µM", "value": 0.998}, {"measurement": "relative viability", "setting": "NCI-H647; first compound 0.04 µM", "value": 0.455}, {"measurement": "relative viability", "setting": "NCI-H647; first compound 0.1265 µM", "value": 0.405}, {"measurement": "relative viability", "setting": "NCI-H647; first compound 0.4 µM", "value": 0.472}, {"measurement": "relative viability", "setting": "NCI-H647; first compound 1.265 µM", "value": 0.394}, {"measurement": "relative viability", "setting": "NCI-H647; first compound 4 µM", "value": 0.433}, {"measurement": "relative viability", "setting": "SW 900; first compound 0.04 µM", "value": 0.582}, {"measurement": "relative viability", "setting": "SW 900; first compound 0.1265 µM", "value": 0.713}, {"measurement": "relative viability", "setting": "SW 900; first compound 0.4 µM", "value": 0.583}, {"measurement": "relative viability", "setting": "SW 900; first compound 1.265 µM", "value": 0.517}, {"measurement": "relative viability", "setting": "SW 900; first compound 4 µM", "value": 0.528}, {"measurement": "relative viability", "setting": "ABC-1; first compound 0.04 µM", "value": 0.663}, {"measurement": "relative viability", "setting": "ABC-1; first compound 0.1265 µM", "value": 0.63}, {"measurement": "relative viability", "setting": "ABC-1; first compound 0.4 µM", "value": 0.645}, {"measurement": "relative viability", "setting": "ABC-1; first compound 1.265 µM", "value": 0.688}, {"measurement": "relative viability", "setting": "ABC-1; first compound 4 µM", "value": 0.657}]}
